What was measured:
Type in all cases: in vivo
[1] = test system: Amaranthus retoflexus (AMARE); experiment: B2 Post-Emergence Efficacy—Test 2; details: post-emergence application, 250 g/ha, evaluated after 13 days (Test 2)
Protocol: (§1) B2 Post-Emergence Efficacy—Test 2 Seeds of a variety of test species are sown in standard soil in pots:—Solanum nigrum (SOLNI), Amaranthus retoflexus (AMARE), Setaria faberi (SETFA), Echinochloa crus-galli (ECHCG), Ipomoea hederacea (IPOHE), Lolium perenne (LOLPE). After 8 days cultivation (post-emergence) under controlled conditions in a glasshouse (at 24/16° C., day/night; 14 hours light; 65% humidity), the plants are sprayed with an aqueous spray solution derived from the formulation of the technical active ingredient in acetone/water (50:50) solution containing 0.5% Tween 20 (polyoxyethylene sorbitan monolaurate, CAS RN 9005-64-5). Compounds are applied at 250 g/ha. The test plants are then grown in a glasshouse under controlled conditions in a glasshouse (at 24/16° C., day/night; 14 hours light; 65% humidity) and watered twice daily. After 13 days, the test is evaluated for the percentage damage caused to the plant. The biological activities are assessed on a five point scale (5=80-100%; 4=60-79%; 3=40-59%; 2=20-39%; 1=0-19%). A blank value in the table is indicative that the compound was not tested on that species.

[2] = test system: Echinochloa crus-galli (ECHCG); experiment: B2 Post-Emergence Efficacy—Test 2; details: post-emergence application, 250 g/ha, evaluated after 13 days (Test 2)
Protocol: as §1

[3] = test system: Ipomoea hederacea (IPOHE); experiment: B2 Post-Emergence Efficacy—Test 2; details: post-emergence application, 250 g/ha, evaluated after 13 days (Test 2)
Protocol: as §1

Lolium perenne (LOLPE) [4] = experiment: B2 Post-Emergence Efficacy—Test 2; details: post-emergence application, 250 g/ha, evaluated after 13 days (Test 2)
Protocol: as §1

Setaria faberi (SETFA) [5] = experiment: B2 Post-Emergence Efficacy—Test 2; details: post-emergence application, 250 g/ha, evaluated after 13 days (Test 2)
Protocol: as §1

Solanum nigrum (SOLNI) [6] = experiment: B2 Post-Emergence Efficacy—Test 2; details: post-emergence application, 250 g/ha, evaluated after 13 days (Test 2)
Protocol: as §1

[7] = test system: Amaranthus retoflexus (AMARE); experiment: B5 Pre-Emergence Efficacy—Test 2; details: 250 g/ha, evaluated after 13 days
Protocol: (§2) B5 Pre-Emergence Efficacy—Test 2 Seeds of a variety of test species were sown in standard soil in pots: Solanum nigrum (SOLNI), Amaranthus retoflexus (AMARE), Setaria faberi (SETFA), Echinochloa crus-galli (ECHCG), Ipomoea hederacea (IPOHE), Lolium perenne (LOLPE). After cultivation for one day (pre-emergence) under controlled conditions in a glasshouse (at 24/16° C., day/night; 14 hours light; 65% humidity), the plants were sprayed with an aqueous spray solution derived from the formulation of the technical active ingredient in acetone/water (50:50) solution containing 0.5% Tween 20 (polyoxyethelyene sorbitan monolaurate, CAS RN 9005-64-5). Compounds are applied at 250 g/ha. The test plants were then grown in a glasshouse under controlled conditions (at 24/16° C., day/night; 14 hours light; 65% humidity) and watered twice daily. After 13 days, the test is evaluated for the percentage damage caused to the plant. The biological activities are assessed on a five point scale (5=80-100%; 4=60-79%; 3=40-59%; 2=20-39%; 1=0-19%). A blank value in the table is indicative that the compound was not tested on that species.

Solanum nigrum (SOLNI) [8] = experiment: B5 Pre-Emergence Efficacy—Test 2; details: 250 g/ha, evaluated after 13 days
Protocol: as §2

[9] = test system: Echinochloa crus-galli (ECHCG); experiment: B5 Pre-Emergence Efficacy—Test 2; design: key: 5-point scale: 5=80-100%, 4=60-79%, 3=40-59%, 2=20-39%, 1=0-19% damage; details: 250 g/ha, evaluated after 13 days
Protocol: as §2

[10] = test system: Ipomoea hederacea (IPOHE); experiment: B5 Pre-Emergence Efficacy—Test 2; design: key: 5-point scale: 5=80-100%, 4=60-79%, 3=40-59%, 2=20-39%, 1=0-19% damage; details: 250 g/ha, evaluated after 13 days
Protocol: as §2

Lolium perenne (LOLPE) [11] = experiment: B5 Pre-Emergence Efficacy—Test 2; design: key: 5-point scale: 5=80-100%, 4=60-79%, 3=40-59%, 2=20-39%, 1=0-19% damage; details: 250 g/ha, evaluated after 13 days
Protocol: as §2

Setaria faberi (SETFA) [12] = experiment: B5 Pre-Emergence Efficacy—Test 2; design: key: 5-point scale: 5=80-100%, 4=60-79%, 3=40-59%, 2=20-39%, 1=0-19% damage; details: 250 g/ha, evaluated after 13 days
Protocol: as §2

| SMILES | percentage damage caused to the plant, five point scale, AMARE [1] | percentage damage caused to the plant, five point scale, ECHCG [2] | percentage damage caused to the plant, five point scale, IPOHE [3] | percentage damage caused to the plant, five point scale, LOLPE (Lolium perenne (LOLPE) [4]) | percentage damage caused to the plant, five point scale, SETFA (Setaria faberi (SETFA) [5]) | percentage damage caused to the plant, five point scale, SOLNI (Solanum nigrum (SOLNI) [6]) | Control of weed species after pre-emergence application, AMARE (percentage damage, five point scale) [7] | Control of weed species after pre-emergence application, SOLNI (percentage damage, five point scale) (Solanum nigrum (SOLNI) [8]) | Control of weed species after pre-emergence application, ECHCG (percentage damage, five point scale) [9] | Control of weed species after pre-emergence application, IPOHE (percentage damage, five point scale) [10] | Control of weed species after pre-emergence application, LOLPE (percentage damage, five point scale) (Lolium perenne (LOLPE) [11]) | Control of weed species after pre-emergence application, SETFA (percentage damage, five point scale) (Setaria faberi (SETFA) [12]) |
| --- | --- | --- | --- | --- | --- | --- | --- | --- | --- | --- | --- | --- |
| CC(=O)Nc1ccc(CCc2c(Cl)ccc(F)c2-c2c(O)c(C)nn(C)c2=O)cc1 [Compound A-1.024] | 5 (5=80-100%) | 4 (4=60-79%) | 5 (5=80-100%) | 5 (5=80-100%) | 5 (5=80-100%) | 5 (5=80-100%) | 5 (5=80-100%) | 5 (5=80-100%) | 2 (2=20-39%) | 0 | 4 (4=60-79%) | 5 (5=80-100%) |
| Cc1nn(C)c(=O)c(-c2c(F)ccc(Cl)c2CCc2ccc(S(=O)(=O)N(C)C)cc2)c1O [Compound A-1.025] | 5 (5=80-100%) | 5 (5=80-100%) | 5 (5=80-100%) | 5 (5=80-100%) | 5 (5=80-100%) | 5 (5=80-100%) | 5 (5=80-100%) | 5 (5=80-100%) | 5 (5=80-100%) | 1 (1=0-19%) | 4 (4=60-79%) | 5 (5=80-100%) |
| Cc1nn(C)c(=O)c(-c2c(F)ccc(Cl)c2CCc2ccc(C(C)(C)C)cc2)c1O [Compound A-1.026] | 4 (4=60-79%) | 0 | 0 | 1 (1=0-19%) | 2 (2=20-39%) | 4 (4=60-79%) | 0 | 0 | 0 | 0 | 0 | 0 |
| Cc1nn(C)c(=O)c(-c2c(F)ccc(Cl)c2CCc2ccc(-c3ccccc3)cc2)c1O [Compound A-1.027, 4-[3-chloro-6-fluoro-2-[2-(4-phenylphenyl)ethyl]phenyl]-5-hydroxy-2,6-dimethyl-pyridazin-3-one] | 5 (5=80-100%) | 5 (5=80-100%) | 4 (4=60-79%) | 5 (5=80-100%) | 5 (5=80-100%) | 4 (4=60-79%) | 5 (5=80-100%) | 4 (4=60-79%) | 1 (1=0-19%) | 4 (4=60-79%) | 2 (2=20-39%) | 3 (3=40-59%) |
| CCN(C)C(=O)c1ccc(CCc2c(Cl)ccc(F)c2-c2c(O)c(C)nn(C)c2=O)cc1F [Compound A-1.028, 4-[2-[6-chloro-3-fluoro-2-(5-hydroxy-2,6-dimethyl-3-oxo-pyridazin-4-yl)phenyl]ethyl]-N-ethyl-2-fluoro-N-methyl-benzamide] | 5 (5=80-100%) | 5 (5=80-100%) | 5 (5=80-100%) | 5 (5=80-100%) | 5 (5=80-100%) | 5 (5=80-100%) | 5 (5=80-100%) | 5 (5=80-100%) | 4 (4=60-79%) | 5 (5=80-100%) | 5 (5=80-100%) | 5 (5=80-100%) |
| Cc1nn(C)c(=O)c(-c2c(F)ccc(Cl)c2CCc2ccccc2C#N)c1O [Compound A-1.029] | 4 (4=60-79%) | 2 (2=20-39%) | 5 (5=80-100%) | 4 (4=60-79%) | 4 (4=60-79%) | 5 (5=80-100%) | 3 (3=40-59%) | 5 (5=80-100%) | 5 (5=80-100%) | 1 (1=0-19%) | 2 (2=20-39%) | 1 (1=0-19%) |
